The values below come from patent US12662479B2 (Foghorn Therapeutics Inc., priority 2020, dated 2026).

The target in one experiment is T1, HiBit-BRM fusion protein (Homo sapiens, UniProt P51531).
T1 construct: expressed in transfected cells
Briefly: HiBiT-BRM cell-based degradation assay (Nano-Glo HiBiT Lytic Detection, 24 h). The conditions noted are these: HeLa cells expressing HiBiT-BRM; for DC50: read-out: BRM HiBit Degradation IC50; for BRM HiBit Degradation Maximum measured: top dose 30 μM. The procedure, abridged: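 HeLa cells stably expressing HiBiT-BRM were treated for 24 h with compounds (10-point 3-fold dilutions, 30 μM final top dose, in duplicate). HiBiT was detected by lytic LgBiT complementation luminescence. % degradation was normalized to DMSO (high control) and 2 μM of a reference BRM/BRG1 degrader (low control).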
(HiBiT is a short tag that completes a luciferase, so light tracks the accessible tagged protein.)

The target in experiment [1] is T2, HiBit-BRG1 fusion protein (Homo sapiens, UniProt P51532).
T2 construct: expressed in transfected cells
T2 sequence (P51532 whole entry, the tested form may be a part): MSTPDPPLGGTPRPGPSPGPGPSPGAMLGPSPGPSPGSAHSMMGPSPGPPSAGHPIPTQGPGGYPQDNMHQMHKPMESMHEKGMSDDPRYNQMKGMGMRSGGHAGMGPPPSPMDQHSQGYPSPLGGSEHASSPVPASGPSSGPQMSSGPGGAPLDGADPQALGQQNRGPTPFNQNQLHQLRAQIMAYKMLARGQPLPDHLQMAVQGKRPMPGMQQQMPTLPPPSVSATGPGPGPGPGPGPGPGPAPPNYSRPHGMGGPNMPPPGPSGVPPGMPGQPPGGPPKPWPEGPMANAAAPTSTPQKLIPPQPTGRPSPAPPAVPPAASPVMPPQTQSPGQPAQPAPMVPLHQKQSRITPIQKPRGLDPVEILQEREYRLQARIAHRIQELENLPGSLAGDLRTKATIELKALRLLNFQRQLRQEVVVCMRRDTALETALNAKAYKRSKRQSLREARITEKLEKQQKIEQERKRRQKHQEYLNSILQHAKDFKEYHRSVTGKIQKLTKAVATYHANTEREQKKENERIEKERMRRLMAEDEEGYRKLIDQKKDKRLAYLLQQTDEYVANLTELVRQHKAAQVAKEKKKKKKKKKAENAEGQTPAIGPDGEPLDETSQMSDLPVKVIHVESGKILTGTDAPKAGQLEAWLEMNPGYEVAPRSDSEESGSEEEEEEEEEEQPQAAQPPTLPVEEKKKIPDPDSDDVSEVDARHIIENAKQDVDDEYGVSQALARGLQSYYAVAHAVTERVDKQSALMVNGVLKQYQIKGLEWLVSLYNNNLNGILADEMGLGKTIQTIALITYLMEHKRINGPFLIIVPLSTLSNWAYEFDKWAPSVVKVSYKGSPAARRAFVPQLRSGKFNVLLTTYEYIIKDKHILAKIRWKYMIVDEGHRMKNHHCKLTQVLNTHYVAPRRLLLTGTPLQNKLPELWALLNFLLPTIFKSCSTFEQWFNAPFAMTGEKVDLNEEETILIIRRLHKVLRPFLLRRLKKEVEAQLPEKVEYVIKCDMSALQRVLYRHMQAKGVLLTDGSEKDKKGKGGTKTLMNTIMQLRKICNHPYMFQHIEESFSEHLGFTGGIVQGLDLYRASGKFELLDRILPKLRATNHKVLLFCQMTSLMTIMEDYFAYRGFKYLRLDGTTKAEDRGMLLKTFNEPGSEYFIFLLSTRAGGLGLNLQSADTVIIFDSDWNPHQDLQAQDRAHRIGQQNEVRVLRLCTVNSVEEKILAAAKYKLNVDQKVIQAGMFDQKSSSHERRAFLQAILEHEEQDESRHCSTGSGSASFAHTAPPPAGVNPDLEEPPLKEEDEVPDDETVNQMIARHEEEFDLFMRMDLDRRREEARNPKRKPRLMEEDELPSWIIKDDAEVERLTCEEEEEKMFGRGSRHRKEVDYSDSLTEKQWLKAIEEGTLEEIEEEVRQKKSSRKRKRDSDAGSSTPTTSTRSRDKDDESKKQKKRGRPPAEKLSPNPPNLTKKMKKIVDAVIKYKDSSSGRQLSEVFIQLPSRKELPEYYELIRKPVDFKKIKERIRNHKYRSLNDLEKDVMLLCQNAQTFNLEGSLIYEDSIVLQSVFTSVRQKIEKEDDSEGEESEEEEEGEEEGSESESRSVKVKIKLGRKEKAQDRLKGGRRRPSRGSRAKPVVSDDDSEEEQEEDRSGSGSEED
Briefly: HiBiT-BRG1 cell-based degradation assay (Nano-Glo HiBiT Lytic Detection, 24 h). To be noted: HeLa cells expressing HiBit-BRG1 and LgBit; for DC50: read-out: BRG1 HiBit Degradation IC50; for Dmax: HeLa, top dose 30 μM, read-out: BRG1 HiBit Degradation Maximum measured. The procedure, abridged:
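Stable HeLa line expressing HiBiT-BRG1 and LgBiT, seeded at 5000 cells/well; luminescence read after lytic Nano-Glo HiBiT reagent and 10 min shaking at RT. % degradation normalised between DMSO (high control) and 2 μM reference BRM/BRG1 degrader (low control).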

Molecules are shown by their SMILES.

T1 sequence (P51531 whole entry, the tested form may be a part): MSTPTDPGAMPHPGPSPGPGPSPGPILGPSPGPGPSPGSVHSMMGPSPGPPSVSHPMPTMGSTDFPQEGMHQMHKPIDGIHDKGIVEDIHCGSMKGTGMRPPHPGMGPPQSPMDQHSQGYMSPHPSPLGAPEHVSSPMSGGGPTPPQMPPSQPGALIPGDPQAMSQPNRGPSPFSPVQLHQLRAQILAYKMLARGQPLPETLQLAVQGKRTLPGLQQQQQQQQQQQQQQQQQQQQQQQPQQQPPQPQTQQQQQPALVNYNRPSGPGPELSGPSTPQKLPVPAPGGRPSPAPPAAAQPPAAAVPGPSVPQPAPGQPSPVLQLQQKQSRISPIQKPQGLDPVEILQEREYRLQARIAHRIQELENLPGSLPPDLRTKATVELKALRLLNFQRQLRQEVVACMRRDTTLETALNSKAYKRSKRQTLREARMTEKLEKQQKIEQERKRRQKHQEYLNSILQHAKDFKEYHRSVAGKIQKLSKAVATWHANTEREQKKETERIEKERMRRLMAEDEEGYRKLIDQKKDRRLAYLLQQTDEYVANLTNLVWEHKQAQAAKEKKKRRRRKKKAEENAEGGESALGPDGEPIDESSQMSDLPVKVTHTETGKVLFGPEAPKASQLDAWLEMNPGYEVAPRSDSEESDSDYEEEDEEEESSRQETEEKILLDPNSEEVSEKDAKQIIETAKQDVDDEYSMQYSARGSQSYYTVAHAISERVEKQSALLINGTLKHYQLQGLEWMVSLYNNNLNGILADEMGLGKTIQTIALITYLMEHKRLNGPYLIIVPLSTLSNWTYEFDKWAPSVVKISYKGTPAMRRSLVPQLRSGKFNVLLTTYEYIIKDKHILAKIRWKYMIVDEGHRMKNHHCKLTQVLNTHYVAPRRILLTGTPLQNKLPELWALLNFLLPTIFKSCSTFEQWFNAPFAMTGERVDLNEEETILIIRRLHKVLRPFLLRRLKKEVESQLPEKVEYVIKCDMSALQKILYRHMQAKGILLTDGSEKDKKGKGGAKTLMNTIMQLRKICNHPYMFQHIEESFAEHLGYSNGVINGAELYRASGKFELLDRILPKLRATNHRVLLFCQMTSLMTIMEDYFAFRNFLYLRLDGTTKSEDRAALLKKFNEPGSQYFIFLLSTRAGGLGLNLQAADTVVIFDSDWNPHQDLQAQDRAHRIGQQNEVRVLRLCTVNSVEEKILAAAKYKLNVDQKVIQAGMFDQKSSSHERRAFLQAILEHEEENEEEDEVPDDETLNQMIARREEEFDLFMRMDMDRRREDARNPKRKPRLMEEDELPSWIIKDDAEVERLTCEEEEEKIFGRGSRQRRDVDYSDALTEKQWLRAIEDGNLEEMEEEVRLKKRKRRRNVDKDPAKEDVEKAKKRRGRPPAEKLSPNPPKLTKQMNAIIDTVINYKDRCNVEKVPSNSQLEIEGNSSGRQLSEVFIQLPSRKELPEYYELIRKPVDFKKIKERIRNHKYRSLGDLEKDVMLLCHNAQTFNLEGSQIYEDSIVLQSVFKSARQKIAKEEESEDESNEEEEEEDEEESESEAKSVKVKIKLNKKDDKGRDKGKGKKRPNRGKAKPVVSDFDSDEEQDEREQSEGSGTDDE

As for `CS(=O)(=O)n1ccc(C(=O)NCC(=O)Nc2nc(-c3cccc(-c4ccnc(OCCNC(=O)CCOCCOCCNc5cccc6c5C(=O)N(C5CCC(=O)NC5=O)C6=O)c4)c3)cs2)c1` (stereo not drawn) [Compound 81, N-[2-[[4-[3-[2-[2-[3-[2-[2-[[2-(2,6-dioxo-3-piperidyl)-1,3-dioxoisoindolin-4-yl]amino]ethoxy]ethoxy]propanoylamino]ethoxy]-4-pyridyl]phenyl]thiazol-2-yl]amino]-2-oxo-ethyl]-1-methylsulfonyl-pyrrole-3-carboxamide], on HiBit-BRM fusion protein, the DC50 was over 10 µM and the “BRM HiBit Degradation Maximum measured” value is “C (‘C’ = Maximum degradation <50%)”. Also, in experiment [1], the DC50 was in the range of 0.1 to 1 µM and the Dmax was 50 to 75%.

For the molecule `CS(=O)(=O)n1ccc(C(=O)NCC(=O)Nc2nc(-c3cccc(-c4ccnc(OCCNC(=O)CCCCCCCCCCNc5cccc6c5C(=O)N(C5CCC(=O)NC5=O)C6=O)c4)c3)cs2)c1` (stereo not drawn) [Compound 82, N-[2-[[4-[3-[2-[2-[11-[[2-(2,6-dioxo-3-piperidyl)-1,3-dioxo-isoindolin-4-yl]amino]undecanoylamino]ethoxy]-4-pyridyl]phenyl]thiazol-2-yl]amino]-2-oxo-ethyl]-1-methylsulfonylpyrrole-3-carboxamide], on HiBit-BRM fusion protein, the DC50 was over 10 µM and the “BRM HiBit Degradation Maximum measured” value was “C (‘C’ = Maximum degradation <50%)”. In addition, in experiment [1], the DC50 was over 10 µM and the Dmax is under 50%.

With `CS(=O)(=O)n1ccc(C(=O)NCC(=O)Nc2nc(-c3cccc(-c4ccnc(OCCNC(=O)CCOCCOCCNc5ccc6c(c5)C(=O)N(C5CCC(=O)NC5=O)C6=O)c4)c3)cs2)c1` (stereo not drawn) [Compound 83, N-[2-[[4-[3-[2-[2-[3-[2-[2-[[2-(2,6-dioxo-3-piperidyl)-1,3-dioxoisoindolin-5-yl]amino]ethoxy]ethoxy]propanoylamino]ethoxy]-4-pyridyl]phenyl]thiazol-2-yl]amino]-2-oxo-ethyl]-1-methylsulfonyl-pyrrole-3-carboxamide], at HiBit-BRM fusion protein, the DC50 was over 10 µM and the “BRM HiBit Degradation Maximum measured” value is reported as “C (‘C’ = Maximum degradation <50%)”. In experiment [1], the DC50 is over 10 µM and the Dmax was under 50%.

As to `CN(CCOCCOCCNc1cccc2c1C(=O)N(C1CCC(=O)NC1=O)C2=O)C(=O)CN(C)c1cc(-c2cccc(-c3csc(NC(=O)CNC(=O)c4ccn(S(C)(=O)=O)c4)n3)c2)ccn1` (stereo not drawn) [Compound 84], at HiBit-BRM fusion protein, the DC50 is over 10 µM and the “BRM HiBit Degradation Maximum measured” value is “C (‘C’ = Maximum degradation <50%)”. For the same molecule, in experiment [1], the DC50 was over 10 µM and the Dmax is under 50%.

Consider `Cc1ncsc1-c1ccc(CNC(=O)[C@@H]2C[C@@H](O)CN2C(=O)[C@@H](NC(=O)CCCCCC(=O)NCCOc2cc(-c3cccc(-c4csc(NC(=O)CNC(=O)c5ccn(S(C)(=O)=O)c5)n4)c3)ccn2)C(C)(C)C)cc1` [Compound 85, N1-((S)-1-((2S,4R)-4-hydroxy-2-((4-(4-methylthiazol-5-yl)benzyl)carbamoyl)pyrrolidin-1-yl)-3,3-dimethyl-1-oxobutan-2-yl)-N7-(2-((4-(3-(2-(2-(1-(methylsulfonyl)-1H-pyrrole-3-carboxamido)acetamido)thiazol-4-yl)phenyl)pyridin-2-yl)oxy)ethyl)heptanediamide], for which, on HiBit-BRM fusion protein, the DC50 was 0.1 to 1 µM and the “BRM HiBit Degradation Maximum measured” value is reported as “A (‘A’ = Maximum degradation >75%)”. In experiment [1], the DC50 is 0.1 to 1 µM and the Dmax is over 75%.

Take `Cc1ncsc1-c1ccc(CNC(=O)[C@@H]2C[C@@H](O)CN2C(=O)[C@@H](NC(=O)CCCCCC(=O)N2CCN(c3cc(-c4cccc(-c5csc(NC(=O)CNC(=O)c6ccn(S(C)(=O)=O)c6)n5)c4)ccn3)CC2)C(C)(C)C)cc1` [Compound 86, N-(2-((4-(3-(2-(4-(7-(((S)-1-((2S,4R)-4-hydroxy-2-((4-(4-methylthiazol-5-yl)benzyl)carbamoyl)pyrrolidin-1-yl)-3,3-dimethyl-1-oxobutan-2-yl)amino)-7-oxoheptanoyl)piperazin-1-yl)pyridin-4-yl)phenyl)thiazol-2-yl)amino)-2-oxoethyl)-1-(methylsulfonyl)-1H-pyrrole-3-carboxamide]: on HiBit-BRM fusion protein, the DC50 is 0.1 to 1 µM; the “BRM HiBit Degradation Maximum measured” value is “B (‘B’ = Maximum degradation ≥50% and ≤75%)”. In experiment [1], the DC50 is 0.1 to 1 µM and the Dmax is 50 to 75%.

On to `Cc1ncsc1-c1ccc(CNC(=O)[C@@H]2C[C@@H](O)CN2C(=O)[C@@H](NC(=O)CCCCCNC(=O)CN(C)c2cc(-c3cccc(-c4csc(NC(=O)CNC(=O)c5ccn(S(C)(=O)=O)c5)n4)c3)ccn2)C(C)(C)C)cc1` [Compound 87], for which, at HiBit-BRM fusion protein, the DC50 is over 10 µM and the “BRM HiBit Degradation Maximum measured” value is recorded as “C (‘C’ = Maximum degradation <50%)”. For the same molecule, in experiment [1], the DC50 is over 10 µM and the Dmax was under 50%.

Regarding `Cc1ncsc1-c1ccc(CNC(=O)[C@@H]2C[C@@H](O)CN2C(=O)[C@@H](NC(=O)CCCCCCCNC(=O)CN(C)c2cc(-c3cccc(-c4csc(NC(=O)CNC(=O)c5ccn(S(C)(=O)=O)c5)n4)c3)ccn2)C(C)(C)C)cc1` [Compound 88], at HiBit-BRM fusion protein, the DC50 is under 0.1 µM; the “BRM HiBit Degradation Maximum measured” value is “B (‘B’ = Maximum degradation ≥50% and ≤75%)”. In addition, in experiment [1], the DC50 is under 0.1 µM and the Dmax lay in the range of 50 to 75%.

Regarding `Cc1ncsc1-c1ccc(CNC(=O)[C@@H]2CC(O)CN2C(=O)[C@@H](NC(=O)COCCOCCOCCNC(=O)CN(C)c2cc(-c3cccc(-c4csc(NC(=O)CNC(=O)c5ccn(S(C)(=O)=O)c5)n4)c3)ccn2)C(C)(C)C)cc1` (stereo partly drawn) [Compound 89], on HiBit-BRM fusion protein, the DC50 was over 10 µM and the “BRM HiBit Degradation Maximum measured” value is recorded as “C (‘C’ = Maximum degradation <50%)”. In experiment [1], the DC50 was over 10 µM and the Dmax was under 50%.

For the molecule `Cc1c(C(=O)NCC(=O)Nc2nc(-c3cccc(-c4ccnc(N(C)CC(=O)NCCOCCOCCNc5cccc6c5C(=O)N(C5CCC(=O)NC5=O)C6=O)c4)c3)cs2)cn(S(=O)(=O)C(C)C)c1C` (stereo not drawn) [Compound 90, N-[2-[[4-[3-[2-[[2-[2-[2-[2-[[2-(2,6-dioxo-3-piperidyl)-1,3-dioxo-isoindolin-4-yl]amino]ethoxy]ethoxy]ethylamino]-2-oxo-ethyl]-methyl-amino]-4-pyridyl]phenyl]thiazol-2-yl]amino]-2-oxo-ethyl]-1-isopropylsulfonyl-4,5-dimethyl-pyrrole-3-carboxamide], at HiBit-BRM fusion protein, the DC50 was over 10 µM and the “BRM HiBit Degradation Maximum measured” value was “C (‘C’ = Maximum degradation <50%)”. Moreover, in experiment [1], the DC50 is over 10 µM and the Dmax is under 50%.

For the molecule `Cc1c(C(=O)NCC(=O)Nc2nc(-c3cccc(-c4ccnc(N(C)CC(=O)NCCCCCNc5cccc6c5C(=O)N(C5CCC(=O)NC5=O)C6=O)c4)c3)cs2)cn(S(=O)(=O)C(C)C)c1C` (stereo not drawn) [Compound 91, N-[2-[[4-[3-[2-[[2-[5-[[2-(2,6-dioxo-3-piperidyl)-1,3-dioxo-isoindolin-4-yl]amino]pentylamino]-2-oxo-ethyl]-methyl-amino]-4-pyridyl]phenyl]thiazol-2-yl]amino]-2-oxo-ethyl]-1-isopropylsulfonyl-4,5-dimethyl-pyrrole-3-carboxamide], on HiBit-BRM fusion protein, the DC50 is over 10 µM and the “BRM HiBit Degradation Maximum measured” value is “C (‘C’ = Maximum degradation <50%)”. Besides, in experiment [1], the DC50 is over 10 µM and the Dmax is under 50%.

Turning to `CN(CC(=O)NCCCCCCCCNc1ccc2c(c1)C(=O)N(C1CCC(=O)NC1=O)C2=O)c1cc(-c2cccc(-c3csc(NC(=O)CNC(=O)c4ccn(S(C)(=O)=O)c4)n3)c2)ccn1` (stereo not drawn) [Compound 92], on HiBit-BRM fusion protein, the DC50 was over 10 µM and the “BRM HiBit Degradation Maximum measured” value was “C (‘C’ = Maximum degradation <50%)”. In addition, in experiment [1], the DC50 was over 10 µM and the Dmax was under 50%.

For the molecule `CN(CC(=O)NCCOCCOCCNc1ccc2c(c1)C(=O)N(C1CCC(=O)NC1=O)C2=O)c1cc(-c2cccc(-c3csc(NC(=O)CNC(=O)c4ccn(S(C)(=O)=O)c4)n3)c2)ccn1` (stereo not drawn) [Compound 93], on HiBit-BRM fusion protein, the DC50 is over 10 µM and the “BRM HiBit Degradation Maximum measured” value is “C (‘C’ = Maximum degradation <50%)”. For the same molecule, in experiment [1], the DC50 is over 10 µM and the Dmax is under 50%.

`Cc1ncsc1-c1ccc(CNC(=O)[C@@H]2C[C@@H](O)CN2C(=O)[C@@H](NC(=O)COCCOCCNC(=O)CN(C)c2cc(-c3cccc(-c4csc(NC(=O)CNC(=O)c5ccn(S(C)(=O)=O)c5)n4)c3)ccn2)C(C)(C)C)cc1` [Compound 94, N-(2-((4-(3-(2-(((S)-13-((2S,4R)-4-hydroxy-2-((4-(4-methylthiazol-5-yl)benzyl)carbamoyl)pyrrolidine-1-carbonyl)-14,14-dimethyl-2,11-dioxo-6,9-dioxa-3,12-diazapentadecyl)(methyl)amino)-pyridin-4-yl)phenyl)thiazol-2-yl)amino)-2-oxoethyl)-1-(methylsulfonyl)-1H-pyrrole-3-carboxamide]: on HiBit-BRM fusion protein, the DC50 is over 10 µM and the “BRM HiBit Degradation Maximum measured” value is reported as “C (‘C’ = Maximum degradation <50%)”. Further, in experiment [1], the DC50 was over 10 µM and the Dmax is under 50%.

Turning to `CN(CCNC(=O)C1(c2cc(-c3cccc(-c4csc(NC(=O)CNC(=O)c5ccn(S(C)(=O)=O)c5)n4)c3)ccn2)CC1)CCNc1cccc2c1C(=O)N(C1CCC(=O)NC1=O)C2=O` (stereo not drawn) [Compound 97, N-[2-[[4-[3-[2-[1-[2-[2-[[2-(2,6-dioxo-3-piperidyl)-1,3-dioxoisoindolin-4-yl]amino]ethyl-methyl-amino]ethylcarbamoyl]cyclopropyl]-4-pyridyl]phenyl]thiazol-2-yl]amino]-2-oxo-ethyl]-1-methylsulfonyl-pyrrole-3-carboxamide], at HiBit-BRM fusion protein, the DC50 was over 10 µM and the “BRM HiBit Degradation Maximum measured” value is “C (‘C’ = Maximum degradation <50%)”. Moreover, in experiment [1], the DC50 was over 10 µM and the Dmax is under 50%.
